Test results published in ChEMBL document CHEMBL6114960, “Discovery of First-in-Class FXR and HSD17B13 Dual Modulator for the Treatment of Metabolic Dysfunction-Associated Fatty Liver Disease” (J Med Chem, 2025).

What was measured:
[1] = molecular target: T1, Bile acid receptor (Homo sapiens, UniProt Q96RI1); experiment: Agonist activity at FXR-LBD (unknown origin) incubated for 3 hrs in presence of fluorescein-coactivator peptide by TR-FRET analysis
T1 sequence (Q96RI1 whole entry): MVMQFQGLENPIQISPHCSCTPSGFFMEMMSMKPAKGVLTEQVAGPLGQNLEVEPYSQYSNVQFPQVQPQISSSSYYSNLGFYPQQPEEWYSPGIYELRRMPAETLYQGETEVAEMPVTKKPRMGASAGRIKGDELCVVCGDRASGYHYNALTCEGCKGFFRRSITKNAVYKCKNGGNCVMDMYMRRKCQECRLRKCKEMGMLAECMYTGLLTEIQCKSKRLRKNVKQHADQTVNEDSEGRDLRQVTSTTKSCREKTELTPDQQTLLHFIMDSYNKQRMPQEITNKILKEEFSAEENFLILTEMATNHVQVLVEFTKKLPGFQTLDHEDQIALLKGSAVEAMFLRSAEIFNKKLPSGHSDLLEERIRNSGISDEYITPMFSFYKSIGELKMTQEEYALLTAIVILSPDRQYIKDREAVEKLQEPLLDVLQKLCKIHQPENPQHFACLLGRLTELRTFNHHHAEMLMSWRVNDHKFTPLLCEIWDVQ

[2] = molecular target: T2, Fatty acid-binding protein, liver (Homo sapiens, UniProt P07148); experiment: Inhibition of FABP1 (unknown origin)
T2 sequence (P07148 whole entry): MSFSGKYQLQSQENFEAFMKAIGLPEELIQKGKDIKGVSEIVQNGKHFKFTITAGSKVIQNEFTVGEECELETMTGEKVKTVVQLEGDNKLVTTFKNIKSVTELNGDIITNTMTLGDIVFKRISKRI

[3] = molecular target: T3, Mineralocorticoid receptor (Homo sapiens, UniProt P08235); experiment: Agonist activity at mineralocorticoid receptor (unknown origin) transfected in green monkey CV-1 cells co-transfected with NHR responsive luciferase reporter incubated for 18 hrs by luciferase assay; type: cell-based
T3 sequence (P08235 whole entry): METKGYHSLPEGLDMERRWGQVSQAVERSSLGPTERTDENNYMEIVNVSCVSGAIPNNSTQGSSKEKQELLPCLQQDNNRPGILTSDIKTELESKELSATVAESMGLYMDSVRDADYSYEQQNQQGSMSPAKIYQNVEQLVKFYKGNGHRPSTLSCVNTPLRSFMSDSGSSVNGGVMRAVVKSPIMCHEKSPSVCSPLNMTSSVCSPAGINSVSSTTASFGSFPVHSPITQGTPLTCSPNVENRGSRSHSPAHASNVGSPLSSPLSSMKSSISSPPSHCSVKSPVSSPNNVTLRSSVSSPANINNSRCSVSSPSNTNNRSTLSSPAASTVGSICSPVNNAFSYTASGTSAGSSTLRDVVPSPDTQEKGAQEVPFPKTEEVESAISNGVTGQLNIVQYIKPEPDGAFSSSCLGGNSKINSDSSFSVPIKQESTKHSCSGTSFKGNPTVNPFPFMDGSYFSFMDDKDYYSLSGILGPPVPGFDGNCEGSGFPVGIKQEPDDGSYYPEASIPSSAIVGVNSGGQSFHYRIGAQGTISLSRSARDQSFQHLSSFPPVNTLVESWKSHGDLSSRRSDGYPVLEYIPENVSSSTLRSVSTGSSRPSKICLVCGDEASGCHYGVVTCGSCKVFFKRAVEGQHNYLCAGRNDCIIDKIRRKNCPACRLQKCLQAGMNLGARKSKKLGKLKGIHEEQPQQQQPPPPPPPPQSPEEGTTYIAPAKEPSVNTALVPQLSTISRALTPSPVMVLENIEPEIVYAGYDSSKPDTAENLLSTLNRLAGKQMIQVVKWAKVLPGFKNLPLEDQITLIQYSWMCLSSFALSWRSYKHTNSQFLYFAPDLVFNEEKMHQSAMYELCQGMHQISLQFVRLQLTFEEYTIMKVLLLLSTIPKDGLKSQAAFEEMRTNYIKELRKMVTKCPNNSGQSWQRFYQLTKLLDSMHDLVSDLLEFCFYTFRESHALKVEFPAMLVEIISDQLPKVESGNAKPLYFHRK

[4] = molecular target: T4, G-protein coupled bile acid receptor 1 (Homo sapiens, UniProt Q8TDU6); experiment: Agonist activity at TGR5 in human NCI-H716 cells assessed as increase in intracellular cAMP level preincubated with compound for 60 mins followed by IBMX addition and measured after 24 hrs by HTR-FRET assay; type: functional, cell-based
T4 sequence (Q8TDU6 whole entry): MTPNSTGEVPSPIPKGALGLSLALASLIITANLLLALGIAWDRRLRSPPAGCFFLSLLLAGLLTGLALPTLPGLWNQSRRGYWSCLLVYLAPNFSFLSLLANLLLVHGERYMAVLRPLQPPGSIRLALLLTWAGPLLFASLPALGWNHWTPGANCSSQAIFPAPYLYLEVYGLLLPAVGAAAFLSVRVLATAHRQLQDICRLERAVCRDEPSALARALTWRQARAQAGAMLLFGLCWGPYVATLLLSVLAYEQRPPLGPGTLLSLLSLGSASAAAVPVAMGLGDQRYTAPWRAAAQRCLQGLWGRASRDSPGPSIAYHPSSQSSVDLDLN

[5] = molecular target: T5, Retinoic acid receptor alpha (Homo sapiens, UniProt P10276); experiment: Agonist activity at RARalpha (unknown origin) transfected in green monkey CV-1 cells co-transfected with NHR responsive luciferase reporter incubated for 18 hrs by luciferase assay; type: cell-based
T5 sequence (P10276 whole entry): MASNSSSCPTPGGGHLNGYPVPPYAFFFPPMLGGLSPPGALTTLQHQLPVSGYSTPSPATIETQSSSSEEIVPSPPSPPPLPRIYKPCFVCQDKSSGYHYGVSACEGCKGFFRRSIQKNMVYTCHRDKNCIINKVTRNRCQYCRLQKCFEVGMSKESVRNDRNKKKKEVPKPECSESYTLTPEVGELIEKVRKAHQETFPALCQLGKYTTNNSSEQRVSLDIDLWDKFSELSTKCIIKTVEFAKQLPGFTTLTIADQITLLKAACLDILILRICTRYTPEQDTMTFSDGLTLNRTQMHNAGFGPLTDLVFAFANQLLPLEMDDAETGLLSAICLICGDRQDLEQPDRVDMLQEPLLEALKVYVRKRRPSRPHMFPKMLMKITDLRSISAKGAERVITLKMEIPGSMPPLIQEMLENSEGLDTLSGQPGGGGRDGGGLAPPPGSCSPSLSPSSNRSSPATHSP

EC50 [1]: 0.052 µM | IC50 [2]: 8.5 µM | EC50 [3]: > 10 µM | EC50 [4]: > 10 µM | EC50 [5]: > 10 µM
Structure (SMILES): O=C(O)c1ccc(-c2ccc(OCc3c(-c4c(Cl)cccc4Cl)noc3C3CC3)cc2)cc1
